{"source": "patent EP0456418B1", "about": "“Treatment of clostridium difficile diarrhoea and pseudomembranous colitis” (KABUSHIKI KAISHA MIYARISAN SEIBUTSU IGAKU KENKYUSHO, priority 1990, dated 1991)", "system": "Clostridium difficile", "assay": "Recurring Clostridium difficile diarrhoea model induced by CFT in golden hamsters", "assay_type": "in vivo", "key": {"[1]": {"conditions": "B group: six + 14 doses of VCM, 48 hours after termination of vancomycin"}}, "note": "Entries after “also recorded” stand apart in the source; their conditions may differ."}
{"smiles": "CN[C@H](CC(C)C)C(=O)N[C@H]1C(=O)N[C@@H](CC(N)=O)C(=O)N[C@H]2C(=O)N[C@H]3C(=O)N[C@H](C(=O)N[C@H](C(=O)O)c4cc(O)cc(O)c4-c4cc3ccc4O)[C@H](O)c3ccc(c(Cl)c3)Oc3cc2cc(c3O[C@@H]2O[C@H](CO)[C@@H](O)[C@H](O)[C@H]2O[C@H]2C[C@](C)(N)[C@H](O)[C@H](C)O2)Oc2ccc(cc2Cl)[C@H]1O", "note": "[vancomycin]", "values": [{"measurement": "faecal state compared with A group", "setting": "[1]", "result": "improvement in the faecal state"}, {"measurement": "ratio of Clostridium difficile detection", "setting": "[1]", "result": "one out of five"}, {"measurement": "faecal state", "setting": "six doses of vancomycin", "result": "discernible improvement in the faecal state"}, {"measurement": "culture of Clostridium difficile from faeces", "setting": "six doses of vancomycin (3 days administration), detection limit 400CFu/g faeces", "result": "not so effective as to show negative culture; also recorded: positive culture"}, {"measurement": "culture of Clostridium difficile", "setting": "vancomycin continued for a total of 10 days", "result": "negative culture"}]}
